Laboratory results reported in ChEMBL document CHEMBL4311957, “Recent advances in natural antifungal flavonoids and their derivatives” (Bioorg Med Chem Lett, 2019).
Values after ≈ are worked out from the molar mass of the structure shown. Values belong to the compound of their own block, whether it stands above or below them.

Columns and labels:
[1] = test system: Candida albicans; experiment: Antifungal activity against Candida albicans ATCC10231 at 50 ug/ml relative to control; format: functional; conditions: ATCC 10231
[2] = test system: Candida albicans; experiment: Antifungal activity against Candida albicans ATCC10231; format: functional; conditions: ATCC 10231
[3] = test system: Candida albicans; experiment: Antifungal activity against Candida albicans ATCC 90028 after 12 to 18 hrs by ELISA; format: functional
[4] = test system: Candida parapsilosis; experiment: Antifungal activity against Candida parapsilosis ATCC 22019 after 12 to 18 hrs by ELISA; format: functional; conditions: Lodderomyces parapsilosis
[5] = test system: Malassezia furfur; experiment: Antifungal activity against Malassezia furfur KCTC 7744 after 12 to 18 hrs by ELISA; format: functional
[6] = test system: Trichophyton rubrum; experiment: Antifungal activity against Trichophyton rubrum KCTC 6345 after 12 to 18 hrs by ELISA; format: functional
[7] = test system: Trichosporon beigelii; experiment: Antifungal activity against Trichosporon beigelii KCTC 7707 after 12 to 18 hrs by ELISA; format: functional
[8] = test system: Candida albicans; experiment: Antifungal activity against Candida albicans after 48 hrs by agar disc-diffusion method; format: functional
[9] = test system: Candida parapsilosis; experiment: Antifungal activity against Candida parapsilosis 96 by microdilution method; format: functional; conditions: Lodderomyces parapsilosis
[10] = test system: Candida tropicalis; experiment: Antifungal activity against Candida tropicalis 166 by microdilution method; format: functional
[11] = test system: Pichia kudriavzevii; experiment: Antifungal activity against Candida krusei 168 by microdilution method; format: functional
[12] = test system: Candida albicans; experiment: Antifungal activity against Candida albicans 501 by microdilution method; format: functional
[13] = test system: Candida albicans; experiment: Antifungal activity against Candida albicans 498 by microdilution method; format: functional
[14] = test system: Candida albicans; experiment: Antifungal activity against Candida albicans 53 by microdilution method; format: functional
[15] = test system: Candida albicans; experiment: Antifungal activity against Candida albicans ATCC 10231 by microdilution method; format: functional
[16] = test system: Nakaseomyces glabratus; experiment: Antifungal activity against Candida glabrata 507 by microdilution method; format: functional
[17] = test system: Nakaseomyces glabratus; experiment: Antifungal activity against Candida glabrata 531 by microdilution method; format: functional
[18] = test system: Nakaseomyces glabratus; experiment: Antifungal activity against Candida glabrata 587 by microdilution method; format: functional
[19] = test system: Nakaseomyces glabratus; experiment: Antifungal activity against Candida glabrata 510 by microdilution method; format: functional
[20] = test system: Nakaseomyces glabratus; experiment: Antifungal activity against Candida glabrata 493 by microdilution method; format: functional
[21] = test system: Nakaseomyces glabratus; experiment: Antifungal activity against Candida glabrata 482 by microdilution method; format: functional
[22] = test system: Cryptococcus neoformans; experiment: Antifungal activity against Cryptococcus neoformans by microdilution method; format: functional
[23] = test system: Candida albicans; experiment: Antifungal activity against Candida albicans ATCC 10231 after 48 hrs by CLSI-based broth microdilution method; format: functional; conditions: ATCC 10231, 48 h
[24] = test system: Candida tropicalis; experiment: Antifungal activity against Candida tropicalis CCC 131-2000 after 48 hrs by CLSI-based broth microdilution method; format: functional; conditions: CCC 131-2000, 48 h
[25] = test system: Trichophyton rubrum; experiment: Antifungal activity against Trichophyton rubrum ATCC MYA3108 by CLSI-based microdilution method; format: functional
[26] = test system: Trichophyton rubrum; experiment: Antifungal activity against Trichophyton rubrum deltaTruMDR2 by CLSI-based microdilution method; format: functional
[27] = test system: Candida albicans; experiment: Synergistic antifungal activity against Candida albicans by microbroth dilution method; format: functional
[28] = test system: Candida tropicalis; experiment: Antifungal activity against FLC-resistant Candida tropicalis; format: functional
[29] = test system: Candida tropicalis; experiment: Antifungal activity against FLC-resistant Candida tropicalis in presence of FLC; format: functional
[30] = test system: Cryptococcus neoformans; experiment: Antifungal activity against Cryptococcus neoformans by CLSI-based microdilution method; format: functional
[31] = test system: Cryptococcus neoformans; experiment: Antifungal activity against Cryptococcus neoformans ATCC 90112 after 48 hrs by CLSI-based method; format: functional; conditions: ATCC 90112, 48 h
[32] = test system: Cryptococcus neoformans; experiment: Antifungal activity against Cryptococcus neoformans ATCC 90112 after 48 hrs in presence of AmB by CLSI-based method; format: functional; conditions: ATCC 90112, 48 h
[33] = test system: Candida albicans; experiment: Fungicidal activity against Candida albicans ATCC 10231 after 48 hrs; format: functional; conditions: ATCC 10231, 48 h
[34] = test system: Saccharomyces cerevisiae; experiment: Fungicidal activity against Saccharomyces cerevisiae ATCC 9763 after 48 hrs; format: functional; conditions: ATCC 9763, 48 h
[35] = test system: Cryptococcus neoformans; experiment: Fungicidal activity against Cryptococcus neoformans ATCC 32264 after 48 hrs; format: functional; conditions: ATCC 32264, 48 h
[36] = test system: Aspergillus flavus; experiment: Fungicidal activity against Aspergillus flavus ATCC 9170 after 48 hrs; format: functional; conditions: ATCC 9170, 48 h
[37] = test system: Aspergillus fumigatus; experiment: Fungicidal activity against Aspergillus fumigatus ATTC 26934 after 48 hrs; format: functional; conditions: ATTC 26934, 48 h
[38] = test system: Aspergillus niger; experiment: Fungicidal activity against Aspergillus niger ATCC 9029 after 48 hrs; format: functional; conditions: ATCC 9029, 48 h
[39] = test system: Trichophyton rubrum; experiment: Fungicidal activity against Trichophyton rubrum CCC 110 after 48 hrs; format: functional; conditions: CCC 110, 48 h
[40] = test system: Trichophyton mentagrophytes; experiment: Fungicidal activity against Trichophyton mentagrophytes ATCC 9972 after 48 hrs; format: functional; conditions: ATCC 9972, 48 h
[41] = test system: Nannizzia gypsea; experiment: Fungicidal activity against Microsporum gypseum CCC 115 after 48 hrs; format: functional; conditions: CCC 115, 48 h
[42] = test system: Cryptococcus neoformans; experiment: Fungicidal activity against Cryptococcus neoformans clinical isolate after 48 hrs; format: functional
[43] = test system: Candida albicans; experiment: Antifungal activity against Candida albicans; format: functional, organism-based
[44] = test system: Trichophyton; experiment: Antifungal activity against Trichophyton; format: functional
[45] = test system: Candida albicans; experiment: Antifungal activity against Candida albicans ATCC 90028 by ELISA; format: functional
[46] = test system: Candida parapsilosis; experiment: Antifungal activity against Candida parapsilosis ATCC 22019 by ELISA; format: functional; conditions: Lodderomyces parapsilosis
[47] = test system: Malassezia furfur; experiment: Antifungal activity against Malassezia furfur KCTC 7744 by ELISA; format: functional
[48] = test system: Trichophyton rubrum; experiment: Antifungal activity against Trichophyton rubrum KCTC 6345 by ELISA; format: functional
[49] = test system: Trichosporon beigelii; experiment: Antifungal activity against Trichosporon beigelii KCTC 7707 by ELISA; format: functional

Compound: C[C@@H]1O[C@@H](Oc2cc(O)c3c(=O)c(O)c(-c4ccc(O)c(O)c4)oc3c2)[C@H](O)[C@H](O)[C@H]1O
MIC [27]: > 64 µg/mL

Compound: O=c1c(O)c(-c2ccc(O)c(O)c2)oc2cc(O)cc(O)c12 [QUERCETIN]
MIC [9]: > 83 µg/mL
MIC [10]: > 83 µg/mL
MIC [11]: > 83 µg/mL
MIC [12]: > 83 µg/mL
MIC [13]: > 83 µg/mL
MIC [14]: > 83 µg/mL
MIC [15]: > 83 µg/mL
MIC [16]: 7.8 to 15.8 µg/mL (≈ 25.8 to 52.3 µM)
MIC [17]: 7.8 to 15.8 µg/mL (≈ 25.8 to 52.3 µM)
MIC [18]: 7.8 to 15.8 µg/mL (≈ 25.8 to 52.3 µM)
MIC [19]: 7.8 to 15.8 µg/mL (≈ 25.8 to 52.3 µM)
MIC [20]: 7.8 to 15.8 µg/mL (≈ 25.8 to 52.3 µM)
MIC [21]: 7.8 to 15.8 µg/mL (≈ 25.8 to 52.3 µM)
MIC [25]: 125 µg/mL (≈ 414 µM)
MIC [26]: 125 µg/mL (≈ 414 µM)
MIC [28]: ≤ 0.5 µg/mL
MIC [29]: 16 µg/mL
MIC [30]: > 125 µg/mL

Compound: CN(C)CCCOc1cc(/C=C/C(=O)c2ccc(Cl)cc2)ccc1O
MFC [33]: 31.2 µg/mL (≈ 86.8 µM)
MFC [34]: 31.2 µg/mL (≈ 86.8 µM)
MFC [35]: 31.2 µg/mL (≈ 86.8 µM)
MFC [36]: 31.2 µg/mL (≈ 86.8 µM)
MFC [37]: 31.2 µg/mL (≈ 86.8 µM)
MFC [38]: 31.2 µg/mL (≈ 86.8 µM)
MFC [39]: 31.2 µg/mL (≈ 86.8 µM)
MFC [40]: 31.2 µg/mL (≈ 86.8 µM)
MFC [41]: 31.2 µg/mL (≈ 86.8 µM)
MFC [42]: 31.2 µg/mL (≈ 86.8 µM)

Compound: O=c1c(O[C@@H]2O[C@H](CO)[C@@H](O)[C@H](O)[C@H]2O)c(-c2ccc(O)c(O)c2)oc2cc(O)cc(O)c12 [ISOQUERCETIN]
MIC [45]: 2.5 µg/mL (≈ 5.38 µM)
MIC [46]: 2.5 µg/mL (≈ 5.38 µM)
MIC [47]: 2.5 to 5 µg/mL (≈ 5.38 to 10.8 µM)
MIC [48]: 2.5 µg/mL (≈ 5.38 µM)
MIC [49]: 5 µg/mL (≈ 10.8 µM)

Second part, led by results:

MIC [2]: 125 µg/mL (≈ 463 µM)
MIC [3]: 5 µg/mL (≈ 18.5 µM)
MIC [4]: 5 µg/mL (≈ 18.5 µM)
MIC [5]: 5 µg/mL (≈ 18.5 µM)
MIC [6]: 5 µg/mL (≈ 18.5 µM)
MIC [7]: 5 µg/mL (≈ 18.5 µM)
Compound: O=c1cc(-c2ccc(O)cc2)oc2cc(O)cc(O)c12 [APIGENIN]
inhibition at 50 µg/mL [1]: 99.8%

MIC [8]: 2 µg/mL (≈ 5.22 µM)
Compound: O=C(CN1CCCCC1)Nc1ccc(C(=O)/C=C/c2ccc(Cl)cc2)cc1

MIC [9]: > 83 µg/mL
MIC [10]: > 83 µg/mL
MIC [11]: > 83 µg/mL
MIC [12]: > 83 µg/mL
MIC [13]: > 83 µg/mL
MIC [14]: > 83 µg/mL
MIC [15]: > 83 µg/mL
MIC [16]: 15.6 to 62.5 µg/mL (≈ 57.7 to 231 µM)
MIC [17]: 15.6 to 62.5 µg/mL (≈ 57.7 to 231 µM)
MIC [18]: 15.6 to 62.5 µg/mL (≈ 57.7 to 231 µM)
MIC [19]: 15.6 to 62.5 µg/mL (≈ 57.7 to 231 µM)
MIC [20]: 15.6 to 62.5 µg/mL (≈ 57.7 to 231 µM)
MIC [21]: 15.6 to 62.5 µg/mL (≈ 57.7 to 231 µM)
MIC [22]: 31.2 µg/mL (≈ 115 µM)
MIC [23]: 31.2 µg/mL (≈ 115 µM)
MIC [24]: 31.2 µg/mL (≈ 115 µM)
MIC [25]: > 1000 µg/mL
MIC [26]: > 1000 µg/mL
Compound: O=c1c(O)c(-c2ccccc2)oc2cc(O)cc(O)c12 [GALANGIN]

MIC [31]: 3.9 µg/mL (≈ 12.3 µM)
MIC [32]: 1 µg/mL
Compound: COc1cc2oc(-c3ccc(O)c(O)c3)cc(=O)c2c(O)c1O

MIC [43]: 1.96 µg/mL (≈ 5.32 µM)
MIC [44]: 1.95 µg/mL (≈ 5.29 µM)
Compound: Cc1c(O)c2c(c3c1OC(C)(C)C=C3)O[C@H](c1ccc(O)c(O)c1)CC2=O
